Patent US8288423B2, “FXa inhibitors with cyclic amidines as P4 subunit, processes for their preparations, and pharmaceutical compositions and derivatives thereof” (Legochem Bioscience Ltd., priority 2007, dated 2012)

How the values were obtained:
[1] = tested on: Citrated plasma; assay: Measurement of PT (prothrombin time) in citrated plasma; type: biochemical; conditions: STA-Neoplastine, 37° C., unit not given (2×PT value)
Protocol: The effect of oxazolidinone derivatives with cyclic amidines represented by Chemical Formula (1) according to the invention on blood coagulation was compared by measuring PT (prothrombin time) and aPTT (activated Partial Thromboplastin Time). The procedure of measurement is described below. Citrated plasma was purchased from Daejeon-Chungnam Blood Institute (located at Daejeon, Korea). A compound solution (5 μL) according to the invention (in a various concentration gradient, 5% DMSO solution) was added to the plasma ([…]), and the reaction was carried out at 37° C. for 5 minutes. STA-Neoplastine (Diagnostica Stago) (100 μL) was then added thereto, and the duration for plasma coagulation was measured. The duration for plasma coagulation is determined as the point when the absorbance at 340 nm reaches 0.1.

[2] = target: T1, factor Xa (Homo sapiens, UniProt P00742); assay: Inhibiting activity of factor Xa inhibitor (chromogenic substrate S-2765); type: biochemical; conditions: calculated from IC50 by Equation 1, Km 125 μM; S-2765 substrate, pH 7.8, 37° C.; read-out: Ki (nM), factor Xa inhibition constant
T1 construct: purchased Enzyme Research Laboratories
Protocol: Relative rate of hydrolysis (as compared to control group without inhibition) was plotted versus logarithm of the concentration of the oxazolidinone derivative with a cyclic amidine represented by Chemical Formula (1) according to the invention, to obtain the concentration of the inhibitor for 50% decrease in the rate of hydrolysis of the substrate.
The inhibition constant can be obtained by spectrophotometry whereby the color development is determined as a function of time, after being reacted with a specific substrate which develops color upon hydrolysis caused by action of factor Xa.
For the inhibitor solution, the inhibitor compound according to the present invention was diluted with dimethylsulfoxide (DMSO) in 10 mM, and then further diluted with third-distilled water (finally 10% DMSO solution), and the solution (10 μL) was added to each well. […] The substrate solution (20 μL) thus prepared was added to each well.
Kinetic analysis of the reaction was performed by a kinetic plate reader (Molecular Devices, Spectramax 190) at 37° C. for 20 minutes.
Relative rate of hydrolysis (compared to control group without inhibition) versus logarithm of the oxazolidinone derivative with a cyclic amidine group (Chemical Formula I) was plotted to obtain the concentration of the inhibitor to decrease the rate of hydrolysis of the substrate by 50%. GraFit (version 5.0.12) program for statistical process purchased from Erithacus Software was employed.
When inhibition constant Ki is calculated, it can be calculated according to Equation (1).

[3] = tested on: thrombus formation; assay: % inhibition against thrombus formation, arteriovenous shunt model in white rats; type: in vivo, white rats (male Sprague Dawley); parameters: concentration or dose not given beside the values; conditions: orally administered 1 hour before opening of the shunt; 15 minutes circulation; versus control group
Protocol: 3) Determination of % Inhibition Against Thrombus Formation by Means of Arteriovenous Shunt Model ([…]) in White Rats Antithrombotic effect of the compounds according to the present invention was evaluated by using arteriovenous shunt model in white rats. The animals used were male Sprague Dawleys with the body weight of 200-250 g. For one day before the experiment, the animals were fasted. Five to six animals were used for each test group. The compound of Example was orally administered 1 hour before opening of the shunt. The rats were anesthetized by abdominal administration of Rompun (Bay HealthCare) and Chloral hydrate or urethane in an amount of 12 and 50 mg per kg of the body weight. Into the left carotid artery and right jugular vein of the white rat, a polyethylene(PE)-60 tubing filled with physiological saline was inserted and secured. Both ends of individual PE tubing were connected to a silicone tubing having a length of 5 cm in which a cotton thread have been incorporated diagonally, and the shunt was open to provide circulation for 15 minutes. The shunt was then compressed by using jaws, and the cotton thread was carefully removed and the thrombus generated was weighed. The % inhibition of thrombus formation was calculated by using the weight of thrombus obtained from white rats of the control group to which a solution of oral administration was administered.

[4] = tested on: plasma; assay: Measurement of aPTT (activated partial thromboplastin time) in plasma; type: biochemical; parameters: unit not given here; conditions: STA-PTT, CaCl2, 37° C., unit not given
Protocol: The effect of oxazolidinone derivatives with cyclic amidines represented by Chemical Formula (1) according to the invention on blood coagulation was compared by measuring PT (prothrombin time) and aPTT (activated Partial Thromboplastin Time). The procedure of measurement is described below. A solution (5 μL) of the oxazolidinone derivative with cyclic amidine group represented by Chemical Formula (1) according to the invention (in a various concentration gradient, 5% DMSO solution) was added to the plasma ([…]), and the reaction was carried out at 37° C. for 2 minutes. STA-PTT (Diagnostica Stago) (50 μL) was then added thereto. After the reaction at 37° C. for additional 5 minutes, 25 mM CaCl2 (50 μL) was added thereto, and the duration for plasma coagulation was measured. The duration for plasma coagulation was determined as the point when the absorbance at 340 nm reaches 0.1.

T1 sequence (P00742 235-488 limits assumed): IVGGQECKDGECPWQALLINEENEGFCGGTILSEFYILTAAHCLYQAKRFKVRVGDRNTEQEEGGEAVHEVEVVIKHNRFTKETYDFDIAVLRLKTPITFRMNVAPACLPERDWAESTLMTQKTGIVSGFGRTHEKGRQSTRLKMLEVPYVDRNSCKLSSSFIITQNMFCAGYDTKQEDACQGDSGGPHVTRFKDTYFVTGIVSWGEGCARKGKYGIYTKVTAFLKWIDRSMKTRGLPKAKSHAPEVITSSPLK
T1 sequence (P00742 41-179 partner limits assumed): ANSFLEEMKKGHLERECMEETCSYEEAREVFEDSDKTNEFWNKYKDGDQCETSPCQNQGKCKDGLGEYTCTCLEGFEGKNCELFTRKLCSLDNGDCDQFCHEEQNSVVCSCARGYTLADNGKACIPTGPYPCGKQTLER

Row | SMILES | PT [1] | Ki [2] | % Inhibition (of thrombus formation) [3] | APTT [4]
1 | O=C(NC[C@H]1CN(c2ccc(N3CCN=C3c3ccc(Cl)s3)cc2)C(=O)O1)c1ccc(Br)s1 [Compound 140] | 0.24 | 2.63 nM | 40% | 
2 | CN1CCCN=C1c1ccc(N2C[C@H](CNC(=O)c3ccc(Cl)s3)OC2=O)cc1Cl [Compound 113, 5-chloro-thiophene-2-carboxylic acid {(S)-3-[3-chloro-4-(1-methyl-1,4,5,6-tetrahydropyrimidin-2-yl)-phenyl]-2-oxo-oxazolidin-5-ylmethyl}-amide] | 0.11 | 9.19 nM | 53% | 0.35
3 | O=C(NC[C@H]1CN(c2ccc(N3CCN=C3c3ccc(Cl)s3)cc2)C(=O)O1)c1ccc(Cl)s1 [Compound 132] | 0.29 | 1.09 nM | 60% | 0.88
4 | O=C(NC[C@H]1CN(c2ccc(N3CCN=C3c3cccnc3)cc2)C(=O)O1)c1ccc(Cl)s1 [Compound 127] | 0.12 | 6.14 nM | 27% | 
5 | CCC1=NCCN1c1ccc(N2C[C@H](CNC(=O)c3ccc(Cl)s3)OC2=O)cc1 [Compound 116] | 0.05 | 3.46 nM | 65% | 0.18
6 | O=C(NC[C@H]1CN(c2ccc(N3CCN=C3c3cccc(Cl)c3)cc2)C(=O)O1)c1ccc(Cl)s1 [Compound 133] | 0.26 | 1.21 nM | 44% | 
7 | CCC1=NCCCN1c1ccc(N2C[C@H](CNC(=O)c3ccc(Cl)s3)OC2=O)cc1 [Compound 142] | 0.04 | 2.52 nM | 47% | 0.17
8 | O=C(NC[C@H]1CN(c2ccc(N3CCN=C3c3ccco3)cc2)C(=O)O1)c1ccc(Br)s1 [Compound 139] | 0.07 | 1.47 nM | 60% | 0.47
9 | CCN1CCN=C1c1ccc(N2C[C@H](CNC(=O)c3ccc(Br)s3)OC2=O)cc1 [Compound 109, 5-bromothiophene-2-carboxylic acid {(S)-3-[4-(1-ethyl-4,5-dihydro-1H-imidazol-2-yl)-phenyl]-2-oxo-oxazolidin-5-ylmethyl}-amide] |  | 4.67 nM | 26% | 
10 | C=C(C)C1=NCCN1c1ccc(N2C[C@H](CNC(=O)c3ccc(Cl)s3)OC2=O)cc1 [Compound 120] | 0.31 | 27.9 nM | 37% | 
11 | CC1=NCCN1c1ccc(N2C[C@H](CNC(=O)c3ccc(Cl)s3)OC2=O)cc1 [Compound 114] | 0.03 | 2.45 nM | 41% | 0.12
12 | Cc1csc(C2=NCCN2c2ccc(N3C[C@H](CNC(=O)c4ccc(Cl)s4)OC3=O)cc2)n1 [Compound 130] | 0.94 | 8.6 nM | 15% | 
13 | O=C(NC[C@H]1CN(c2ccc(C3=NCCCN3)cc2)C(=O)O1)c1ccc(Cl)s1 [Compound 106, 5-chlorothiophene-2-carboxylic acid {(S)-2-oxo-3-[4-(1,4,5,6-tetrahydropyrimidine-2-yl)-phenyl]-oxazolidin-5-ylmethyl}-amide] | 0.09 | 13.1 nM | 0% | 0.55
14 | COC(=O)C(C)(C)C1=NCCN1c1ccc(N2C[C@H](CNC(=O)c3ccc(Cl)s3)OC2=O)cc1 [Compound 136] | 0.10 | 1.78 nM | 31% | 
15 | CCN1CCN=C1c1ccc(N2C[C@H](CNC(=O)c3ccc(Cl)s3)OC2=O)cc1F [Compound 110] | 0.03 | 4.4 nM | 38% | 0.19
16 | O=C(NC[C@H]1CN(c2ccc(N3CCN=C3C3CCC3)cc2)C(=O)O1)c1ccc(Cl)s1 [Compound 118] | 0.58 | 69.9 nM |  | 
17 | CCN1CCN=C1c1ccc(N2C[C@H](CNC(=O)c3ccc(Cl)s3)OC2=O)cc1Cl [Compound 112, 5-chlorothiophene-2-carboxylic acid {(S)-3-[3-chloro-4-(1-ethyl-4,5-dihydro-1H-imidazol-2-yl)-phenyl]-2-oxo-oxazolidin-5-ylmethyl}-amide] | 0.05 | 4.05 nM | 26% | 0.19
18 | O=C(NC[C@H]1CN(c2ccc(N3CCN=C3c3ccc(C(F)(F)F)cc3)cc2)C(=O)O1)c1ccc(Cl)s1 [Compound 134] | 0.36 | 4.01 nM | 4% | 
19 | CN1CCCN=C1c1ccc(N2C[C@H](CNC(=O)c3ccc(Cl)s3)OC2=O)cc1F [Compound 111, 5-chloro-thiophene-2-carboxylic acid {(S)-3-[3-fluoro-4-(1-methyl-1,4,5,6-tetrahydropyrimidin-2-yl)-phenyl]-2-oxo-oxazolidin-5-ylmethyl}-amide] | 0.03 | 10.5 nM | 49% | 0.28
20 | COC(=O)C1(C2=NCCN2c2ccc(N3C[C@H](CNC(=O)c4ccc(Cl)s4)OC3=O)cc2)CC1 [Compound 135] | 0.15 | 31.5 nM | 62% | 1.34
21 | O=C(NC[C@H]1CN(c2ccc(N3CCN=C3c3ccncc3)cc2)C(=O)O1)c1ccc(Cl)s1 [Compound 126] | 0.16 | 12.8 nM | 22% | 
22 | O=C(NC[C@H]1CN(c2ccc(N3CCN=C3C3CCOC3)cc2)C(=O)O1)c1ccc(Cl)s1 (stereo partly shown) [Compound 125] | 0.05 | 2.33 nM | 42% | 
23 | CN1CCN=C1c1ccc(N2C[C@H](CNC(=O)c3ccc(Br)s3)OC2=O)cc1 [Compound 108, 5-bromothiophene-2-carboxylic acid {(S)-3-[4-(1-methyl-4,5-dihydro-1H-imidazol-2-yl)-phenyl]-2-oxo-oxazolidin-5-ylmethyl}-amide] | 0.03 | 2.42 nM | 30% | 0.15
24 | CC(C)=CC1=NCCN1c1ccc(N2C[C@H](CNC(=O)c3ccc(Cl)s3)OC2=O)cc1 [Compound 121] | 0.06 | 1.81 nM | 35% | 
25 | O=C(NC[C@H]1CN(c2ccc(N3C=NCC3)cc2)C(=O)O1)c1ccc(Cl)s1 [Compound 115] | 0.34 | 1.29 nM |  | 2.61
26 | Cc1ccc(C2=NCCN2c2ccc(N3C[C@H](CNC(=O)c4ccc(Cl)s4)OC3=O)cc2)cc1 [Compound 129] | 0.30 | 0.92 nM | 0% | 
27 | O=C(NC[C@H]1CN(c2ccc(N3CCN=C3c3ccccn3)cc2)C(=O)O1)c1ccc(Cl)s1 [Compound 128] | 0.95 | 13.9 nM | 22% | 
28 | CC(C)CC1=NCCN1c1ccc(N2C[C@H](CNC(=O)c3ccc(Cl)s3)OC2=O)cc1 [Compound 119] | 0.03 | 3.7 nM | 4% | 
